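Abbreviation: GI50, concentration required for 50% inhibition of growth. At the TGI there is no net growth.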
Legend:
Assay in all cases: growth of human tumour cells (NCI), 384-well format
SNB-19 CNS = test system: SNB-19 CNS
UACC-257 melanoma = test system: UACC-257 melanoma
MOLT-4 leukemia = test system: MOLT-4 leukemia
M14 melanoma = test system: M14 melanoma
SF-539 CNS = test system: SF-539 CNS
CAKI-1 renal = test system: CAKI-1 renal
SK-MEL-28 melanoma = test system: SK-MEL-28 melanoma
SK-MEL-5 melanoma = test system: SK-MEL-5 melanoma
HOP-92 NSCLC = test system: HOP-92 NSCLC
EKVX NSCLC = test system: EKVX NSCLC
IGROV1 ovarian = test system: IGROV1 ovarian
COLO 205 colon = test system: COLO 205 colon
NCI-H226 lung = test system: NCI-H226 lung
SW-620 colon = test system: SW-620 colon
ACHN renal = test system: ACHN renal
BT-549 breast = test system: BT-549 breast
K-562 leukemia = test system: K-562 leukemia
HL-60(TB) leukemia = test system: HL-60(TB) leukemia
MCF7 breast = test system: MCF7 breast
UACC-62 melanoma = test system: UACC-62 melanoma
SK-OV-3 ovarian = test system: SK-OV-3 ovarian
A498 renal = test system: A498 renal
HS 578T breast = test system: HS 578T breast
UO-31 renal = test system: UO-31 renal
NCI/ADR-RES ovarian = test system: NCI/ADR-RES ovarian
HT29 colon = test system: HT29 colon
NCI-H522 lung = test system: NCI-H522 lung
NCI-H23 lung = test system: NCI-H23 lung
U251 glioblastoma = test system: U251 glioblastoma
MALME-3M melanoma = test system: MALME-3M melanoma
HCT-116 colon = test system: HCT-116 colon
RXF 393 renal = test system: RXF 393 renal
MDA-MB-231 breast = test system: MDA-MB-231 breast
RPMI-8226 leukemia = test system: RPMI-8226 leukemia
OVCAR-8 ovarian = test system: OVCAR-8 ovarian
OVCAR-4 ovarian = test system: OVCAR-4 ovarian
TK-10 renal = test system: TK-10 renal
MDA-MB-468 breast = test system: MDA-MB-468 breast
SNB-75 CNS = test system: SNB-75 CNS
KM12 colon = test system: KM12 colon
DU-145 prostate = test system: DU-145 prostate
786-0 renal = test system: 786-0 renal
HOP-62 NSCLC = test system: HOP-62 NSCLC
PC-3 prostate = test system: PC-3 prostate
HCC-2998 colon = test system: HCC-2998 colon
OVCAR-3 ovarian = test system: OVCAR-3 ovarian
SN12C renal = test system: SN12C renal
NCI-H460 NSCLC = test system: NCI-H460 NSCLC
OVCAR-5 ovarian = test system: OVCAR-5 ovarian
LOX IMVI melanoma = test system: LOX IMVI melanoma
HCT-15 colon = test system: HCT-15 colon
SF-295 CNS = test system: SF-295 CNS
MDA-MB-435 melanoma = test system: MDA-MB-435 melanoma
NCI-H322M lung = test system: NCI-H322M lung
CCRF-CEM leukemia = test system: CCRF-CEM leukemia
SF-268 CNS = test system: SF-268 CNS
A549 NSCLC = test system: A549 NSCLC

COc1ccccc1N1CCN(C(=O)c2ccc(NS(=O)(=O)c3cccc4cccnc34)cc2)CC1
GI50 (SNB-19 CNS): 52.1 µM
TGI (SNB-19 CNS): > 100 µM
GI50 (UACC-257 melanoma): > 100 µM
TGI (UACC-257 melanoma): > 100 µM
GI50 (MOLT-4 leukemia): 4.05 µM
TGI (MOLT-4 leukemia): > 100 µM
GI50 (M14 melanoma): 26.9 µM
TGI (M14 melanoma): 84.9 µM
GI50 (SF-539 CNS): 32 µM
TGI (SF-539 CNS): > 100 µM
GI50 (CAKI-1 renal): 74.5 µM
TGI (CAKI-1 renal): > 100 µM
GI50 (SK-MEL-28 melanoma): > 100 µM
TGI (SK-MEL-28 melanoma): > 100 µM
GI50 (SK-MEL-5 melanoma): 7.09 µM
TGI (SK-MEL-5 melanoma): > 100 µM
GI50 (HOP-92 NSCLC): > 100 µM
TGI (HOP-92 NSCLC): > 100 µM
GI50 (EKVX NSCLC): 37.9 µM
TGI (EKVX NSCLC): > 100 µM
GI50 (IGROV1 ovarian): > 100 µM
TGI (IGROV1 ovarian): > 100 µM
GI50 (COLO 205 colon): 31.5 µM
TGI (COLO 205 colon): > 100 µM
GI50 (NCI-H226 lung): 8.48 µM
TGI (NCI-H226 lung): > 100 µM
GI50 (SW-620 colon): 44.8 µM
TGI (SW-620 colon): > 100 µM
GI50 (ACHN renal): > 100 µM
TGI (ACHN renal): > 100 µM
GI50 (BT-549 breast): 33 µM
TGI (BT-549 breast): > 100 µM
GI50 (K-562 leukemia): 10 µM
TGI (K-562 leukemia): 34.6 µM
GI50 (HL-60(TB) leukemia): 18.2 µM
TGI (HL-60(TB) leukemia): 33.3 µM
GI50 (MCF7 breast): 24.5 µM
TGI (MCF7 breast): > 100 µM
GI50 (UACC-62 melanoma): 58.6 µM
TGI (UACC-62 melanoma): > 100 µM
GI50 (SK-OV-3 ovarian): 38.9 µM
TGI (SK-OV-3 ovarian): > 100 µM
GI50 (A498 renal): 71.9 µM
TGI (A498 renal): > 100 µM
GI50 (HS 578T breast): 25.9 µM
TGI (HS 578T breast): > 100 µM
GI50 (UO-31 renal): > 100 µM
TGI (UO-31 renal): > 100 µM
GI50 (NCI/ADR-RES ovarian): > 100 µM
TGI (NCI/ADR-RES ovarian): > 100 µM
GI50 (HT29 colon): > 100 µM
TGI (HT29 colon): > 100 µM
GI50 (NCI-H522 lung): 16.8 µM
TGI (NCI-H522 lung): 34.2 µM
GI50 (NCI-H23 lung): > 100 µM
TGI (NCI-H23 lung): > 100 µM
GI50 (U251 glioblastoma): 40.7 µM
TGI (U251 glioblastoma): > 100 µM
GI50 (MALME-3M melanoma): > 100 µM
TGI (MALME-3M melanoma): > 100 µM
GI50 (HCT-116 colon): 32.8 µM
TGI (HCT-116 colon): > 100 µM
GI50 (RXF 393 renal): 18.2 µM
TGI (RXF 393 renal): 80.9 µM
GI50 (MDA-MB-231 breast): 63.5 µM
TGI (MDA-MB-231 breast): > 100 µM
GI50 (RPMI-8226 leukemia): 10.2 µM
TGI (RPMI-8226 leukemia): 23.6 µM
GI50 (OVCAR-8 ovarian): 28.1 µM
TGI (OVCAR-8 ovarian): > 100 µM
GI50 (OVCAR-4 ovarian): > 100 µM
TGI (OVCAR-4 ovarian): > 100 µM
GI50 (TK-10 renal): > 100 µM
TGI (TK-10 renal): > 100 µM
GI50 (MDA-MB-468 breast): 4.03 µM
TGI (MDA-MB-468 breast): 17.6 µM
GI50 (SNB-75 CNS): > 100 µM
TGI (SNB-75 CNS): > 100 µM
GI50 (KM12 colon): > 100 µM
TGI (KM12 colon): > 100 µM
GI50 (DU-145 prostate): > 100 µM
TGI (DU-145 prostate): > 100 µM
GI50 ([…]-0 renal): 40.8 µM
TGI (786-0 renal): > 100 µM
GI50 (HOP-62 NSCLC): 32.1 µM
TGI (HOP-62 NSCLC): > 100 µM
GI50 (PC-3 prostate): 56 µM
TGI (PC-3 prostate): > 100 µM
GI50 (HCC-2998 colon): 12.7 µM
TGI (HCC-2998 colon): 56.1 µM
GI50 (OVCAR-3 ovarian): 24.9 µM
TGI (OVCAR-3 ovarian): 81.4 µM
GI50 (SN12C renal): 61.3 µM
TGI (SN12C renal): > 100 µM
GI50 (NCI-H460 NSCLC): 14.1 µM
TGI (NCI-H460 NSCLC): 31 µM
GI50 (OVCAR-5 ovarian): > 100 µM
TGI (OVCAR-5 ovarian): > 100 µM
GI50 (LOX IMVI melanoma): > 100 µM
TGI (LOX IMVI melanoma): > 100 µM
GI50 (HCT-15 colon): 28.9 µM
TGI (HCT-15 colon): > 100 µM
GI50 (SF-295 CNS): > 100 µM
TGI (SF-295 CNS): > 100 µM
GI50 (MDA-MB-435 melanoma): 20.4 µM
TGI (MDA-MB-435 melanoma): 42.9 µM
GI50 (NCI-H322M lung): 53.4 µM
TGI (NCI-H322M lung): > 100 µM
GI50 (CCRF-CEM leukemia): 9.02 µM
TGI (CCRF-CEM leukemia): 23.6 µM
GI50 (SF-268 CNS): 13.7 µM
TGI (SF-268 CNS): 47.4 µM
GI50 (A549 NSCLC): 18.5 µM
TGI (A549 NSCLC): > 100 µM

Source: PubChem BioAssay (NCI)
